# Experimental data published in paper PMC8760513, “Mechanistic details of the actinobacterial lyase-catalyzed degradation reaction of 2-hydroxyisobutyryl-CoA” (The Journal of Biological Chemistry, 2021).
# Molecular target: T1, AcHACL (Actinomycetospora chiangmaiensis, UniProt P0DUV9)
# T1 construct: recombinant from E. coli Lemo21(DE3), vector pASG-IBA43, N-terminal His-tag and C-terminal Strep-tag; tag removal not mentioned; homotetramer (dimer of dimers); C-terminal lid residues 556-590
# T1 sequence (P0DUV9 1-590): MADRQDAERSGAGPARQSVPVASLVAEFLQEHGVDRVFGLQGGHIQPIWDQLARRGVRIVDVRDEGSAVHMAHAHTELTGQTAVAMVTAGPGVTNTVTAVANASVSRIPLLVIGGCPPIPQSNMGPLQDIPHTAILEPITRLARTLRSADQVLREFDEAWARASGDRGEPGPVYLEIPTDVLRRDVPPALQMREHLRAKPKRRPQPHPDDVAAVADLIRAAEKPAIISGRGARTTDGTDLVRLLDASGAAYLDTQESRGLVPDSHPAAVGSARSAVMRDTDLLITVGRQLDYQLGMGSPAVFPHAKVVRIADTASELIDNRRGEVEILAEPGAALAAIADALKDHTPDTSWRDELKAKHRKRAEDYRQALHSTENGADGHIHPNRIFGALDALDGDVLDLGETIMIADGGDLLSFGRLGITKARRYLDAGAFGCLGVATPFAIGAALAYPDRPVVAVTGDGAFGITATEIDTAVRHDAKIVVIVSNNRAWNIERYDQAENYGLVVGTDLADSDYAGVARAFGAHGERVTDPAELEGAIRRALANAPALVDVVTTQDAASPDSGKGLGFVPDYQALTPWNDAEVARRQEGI
# Test: X-ray crystal structure, […] Å
# Format: binding
SMILES,"X-ray crystal structure, 1.64 Å (product-bound dimer, additional density near ThDP interpreted as acetone, hydrogen bond to E493)","X-ray crystal structure, 1.64 Å (product-bound dimer formed from 2-HIB-CoA in the crystal, density not well defined beyond the pantoyl moiety)"
CC(C)=O [acetone],additional electron density close to the ThDP cofactor was interpreted as an acetone molecule,
CC(C)(COP(=O)(O)OP(=O)(O)OC[C@H]1O[C@@H](n2cnc3c(N)ncnc32)[C@H](O)[C@@H]1OP(=O)(O)O)[C@@H](O)C(=O)NCCC(=O)NCCSC=O [formyl-CoA],,the products formyl-CoA and acetone are bound to the other dimer
